Read-outs that look alike come from different tables or passages of the source.
Experiments:
Format in all cases: cell-based, human
[1] = test system: SW-620; experiment: NCI-60 cell line screen (SRB), SW-620; conditions: Homo sapiens
Method: (§1) Drug sensitivity data are provided as GI50s (concentrations required to inhibit growth by 50%). The first row of the text file identifies cell lines, separated by tabs. Subsequent rows contain compound number, compound name, and GI50 for each cell line, each separated by a tab. […] For a typical screening experiment, cells are inoculated into 96 well microtiter plates in 100 μL at plating densities ranging from 5,000 to 40,000 cells/well depending on the doubling time of individual cell lines. After cell inoculation, the microtiter plates are incubated at 37° C., 5% CO2, 95% air and 100% relative humidity for 24 h prior to addition of experimental drugs. After 24 h, two plates of each cell line are fixed in situ with TCA, to represent a measurement of the cell population for each cell line at the time of drug addition (Tz). Experimental drugs are solubilized in dimethyl sulfoxide at 400-fold the desired final maximum test concentration and stored frozen prior to use. At the time of drug addition, an aliquot of frozen concentrate is thawed and diluted to twice the desired final maximum test concentration with complete medium containing 50 μg/ml gentamicin. Additional four, 10-fold or one-half log serial dilutions are made to provide a total of five drug concentrations plus control. Aliquots of 100 μl of these different drug dilutions are added to the appropriate microtiter wells already containing 100 μl of medium, resulting in the required final drug concentrations. Following drug addition, the plates are incubated for an additional 48 h at 37° C., 5% CO2, 95% air, and 100% relative humidity. For adherent cells, the assay is terminated by the addition of cold TCA. Cells are fixed in situ by the gentle addition of 50 μl of cold 50% (w/v) TCA (final concentration, 10% TCA) and incubated for 60 minutes at 4° C. The supernatant is discarded, and the plates are washed five times with tap water and air dried. Sulforhodamine B (SRB) solution (100 μl) at 0.4% (w/v) in 1% acetic acid is added to each well, and plates are incubated for 10 minutes at room temperature. After staining, unbound dye is removed by washing five times with 1% acetic acid and the plates are air dried. Bound stain is subsequently solubilized with 10 mM trizma base, and the absorbance is read on an automated plate reader at a wavelength of 515 nm. For suspension cells, the methodology is the same except that the assay is terminated by fixing settled cells at the bottom of the wells by gently adding 50 μl of 80% TCA (final concentration, 16% TCA). Using the seven absorbance measurements [time zero, (Tz), control growth, (C), and test growth in the presence of drug at the five concentration levels (Ti)], the percentage growth is calculated at each of the drug concentrations levels. […]

[2] = test system: MCF-7; experiment: NCI-60 cell line screen (SRB), MCF-7; conditions: Homo sapiens
Method: as §1

[3] = test system: CAKI-1; experiment: NCI-60 cell line screen (SRB), CAKI-1; conditions: Homo sapiens
Method: as §1

[4] = test system: SF-539; experiment: NCI-60 cell line screen (SRB), SF-539; conditions: Homo sapiens
Method: as §1

[5] = test system: HL-60(TB); experiment: NCI-60 cell line screen (SRB), HL-60(TB); conditions: Homo sapiens
Method: as §1

[6] = test system: A-498; experiment: NCI-60 cell line screen (SRB), A-498; conditions: Homo sapiens
Method: as §1

[7] = test system: SK-MEL-28; experiment: NCI-60 cell line screen (SRB), SK-MEL-28; conditions: Homo sapiens
Method: as §1

[8] = test system: DU145; experiment: NCI-60 cell line screen (SRB), DU145; conditions: Homo sapiens
Method: as §1

[9] = test system: T-47D; experiment: NCI-60 cell line screen (SRB), T-47D; conditions: Homo sapiens, T47D
Method: as §1

[10] = test system: KM12; experiment: NCI-60 cell line screen (SRB), KM12; conditions: Homo sapiens
Method: as §1

[11] = test system: Melanoma cell lines; experiment: NCI-60 cell line screen, Melanoma panel average; conditions: Homo sapiens, read-out: GI50 Average
Method: as §1

[12] = test system: OVCAR-3; experiment: NCI-60 cell line screen (SRB), OVCAR-3; conditions: Homo sapiens
Method: as §1

[13] = test system: MDA-MB-435; experiment: NCI-60 cell line screen (SRB), MDA-MB-435; conditions: Homo sapiens
Method: as §1

[14] = test system: LOX IMVI; experiment: NCI-60 cell line screen (SRB), LOX IMVI; conditions: Homo sapiens
Method: as §1

[15] = test system: NCI-H460; experiment: NCI-60 cell line screen (SRB), NCI-H460; conditions: Homo sapiens
Method: as §1

[16] = test system: HT29; experiment: NCI-60 cell line screen (SRB), HT29; conditions: Homo sapiens
Method: as §1

[17] = test system: SF-268; experiment: NCI-60 cell line screen (SRB), SF-268; conditions: Homo sapiens
Method: as §1

[18] = test system: Colon Cancer cell lines; experiment: NCI-60 cell line screen, Colon Cancer panel average; conditions: Homo sapiens, read-out: GI50 Average
Method: as §1

[19] = test system: COLO 205; experiment: NCI-60 cell line screen (SRB), COLO 205; conditions: Homo sapiens
Method: as §1

[20] = test system: IGROV1; experiment: NCI-60 cell line screen (SRB), IGROV1; conditions: Homo sapiens
Method: as §1

[21] = test system: HCT-116; experiment: NCI-60 cell line screen (SRB), HCT-116; conditions: Homo sapiens
Method: as §1

[22] = test system: MDA-MB-468; experiment: NCI-60 cell line screen (SRB), MDA-MB-468; conditions: Homo sapiens
Method: as §1

[23] = test system: OVCAR-8; experiment: NCI-60 cell line screen (SRB), OVCAR-8; conditions: Homo sapiens
Method: as §1

CC1(C)CC(NC(=O)[C@H](Cc2ccc(OCc3c(Cl)cccc3Cl)cc2)NC(=O)c2ccc(OCCC[Si](C)(C)C)cc2)CC(C)(C)N1 [GH1501, N^α-{4-[3-(trimethylsilyl)propoxy]-benzoyl}-N-(2,2,6,6-tetramethylpiperidin-4-yl)-[O-(2,6-dichlorobenzyl)-L-tyrosinamide]] was tested. Which GI50 ([1]; SW-620, 48 h) did it give?
Its GI50 is 313 nM.

What about the GI50 ([2]; MCF7, 48 h) of the same compound?
Its GI50 is 335 nM.

What about the GI50 ([3]; CAKI-1, 48 h) of the same compound?
The GI50 was 1360 nM.

And the GI50 ([4]; SF-539, 48 h)?
Its GI50 is 1770 nM.

And the GI50 ([5]; HL-60, 48 h)?
The GI50 was 813 nM.

What about the GI50 ([6]; A498, 48 h) of the same compound?
Its GI50 is 1750 nM.

And the GI50 ([7]; SK-MEL-28, 48 h)?
Its GI50 is 1500 nM.

And the GI50 ([8]; DU-145, 48 h)?
The GI50 was 347 nM.

What about the GI50 ([9]; 48 h) of the same compound?
The GI50 was 1900 nM.

What about the GI50 ([10]; KM12, 48 h) of the same compound?
Its GI50 is 363 nM.

And the GI50 [11]?
The GI50 was 1180 nM.

And the GI50 ([12]; OVCAR-3, 48 h)?
Its GI50 is 1250 nM.

And the GI50 ([13]; MDA-MB-435, 48 h)?
Its GI50 is 269 nM.

And the GI50 ([14]; 48 h)?
The GI50 was 197 nM.

And the GI50 ([15]; NCI-H460, 48 h)?
The GI50 was 253 nM.

And the GI50 ([16]; HT-29, 48 h)?
Its GI50 is 263 nM.

What about the GI50 ([17]; SF-268, 48 h) of the same compound?
The GI50 was 903 nM.

What about the GI50 [18] of the same compound?
The GI50 was 395 nM.

What about the GI50 ([19]; COLO 205, 48 h) of the same compound?
Its GI50 is 216 nM.

What about the GI50 ([20]; IGROV-1, 48 h) of the same compound?
The GI50 was 1200 nM.

And the GI50 ([21]; HCT-116, 48 h)?
The GI50 was 206 nM.

And the GI50 ([22]; MDA-MB-468, 48 h)?
The GI50 was 1700 nM.

What about the GI50 ([23]; OVCAR-8, 48 h) of the same compound?
The GI50 was 268 nM.

With CCCC[Si](C)(C)COc1ccc(C(=O)N[C@@H](Cc2ccc(OCc3c(Cl)cccc3Cl)cc2)C(=O)NC2CC(C)(C)NC(C)(C)C2)cc1 [GH1503, N^α-{4-[(butyldimethylsilyl)methoxy]-benzoyl}-N-(2,2,6,6-tetramethylpiperidin-4-yl)-[O-(2,6-dichlorobenzyl)-L-tyrosinamide]] as the compound, how does the GI50 ([1]; Colon Cancer, SW-620, 48 h drug incubation, read-out: GI50) read?
Its GI50 is 318 nM.

What about the GI50 ([2]; MCF7, Breast Cancer, MCF-7, 48 h drug incubation, read-out: GI50) of the same compound?
Its GI50 is 356 nM.

And the GI50 ([3]; Renal Cancer, CAKI-1, 48 h drug incubation, read-out: GI50)?
Its GI50 is 1080 nM.

What about the GI50 ([4]; CNS Cancer, SF-539, 48 h drug incubation, read-out: GI50) of the same compound?
The GI50 was 1730 nM.

What about the GI50 ([5]; Leukemia, HL-60(TB), 48 h drug incubation, read-out: GI50) of the same compound?
Its GI50 is 790 nM.

And the GI50 ([6]; A498, Renal Cancer, A-498, 48 h drug incubation, read-out: GI50)?
The GI50 was 1950 nM.

And the GI50 ([7]; Melanoma, SK-MEL-28, 48 h drug incubation, read-out: GI50)?
The GI50 was 1580 nM.

What about the GI50 ([8]; DU-145, Prostate Cancer, DU145, 48 h drug incubation, read-out: GI50) of the same compound?
Its GI50 is 274 nM.

What about the GI50 ([9]; Breast Cancer, T-47D, 48 h drug incubation, read-out: GI50) of the same compound?
The GI50 was 1840 nM.

And the GI50 ([10]; Colon Cancer, KM12, 48 h drug incubation, read-out: GI50)?
The GI50 was 382 nM.

What about the GI50 ([11]; average over Melanoma panel) of the same compound?
The GI50 was 1130 nM.

And the GI50 ([12]; Ovarian Cancer, OVCAR-3, 48 h drug incubation, read-out: GI50)?
The GI50 was 761 nM.

What about the GI50 ([13]; Melanoma, MDA-MB-435, 48 h drug incubation, read-out: GI50) of the same compound?
The GI50 was 250 nM.

And the GI50 ([14]; Melanoma, 48 h drug incubation, read-out: GI50)?
Its GI50 is 191 nM.

And the GI50 ([15]; Non-Small Cell Lung Cancer, NCI-H460, 48 h drug incubation, read-out: GI50)?
The GI50 was 259 nM.

And the GI50 ([16]; HT-29, Colon Cancer, HT29, 48 h drug incubation, read-out: GI50)?
The GI50 was 342 nM.

And the GI50 ([17]; CNS Cancer, SF-268, 48 h drug incubation, read-out: GI50)?
The GI50 was 611 nM.

What about the GI50 ([18]; average over Colon Cancer panel) of the same compound?
The GI50 was 442 nM.

What about the GI50 ([19]; Colon Cancer, COLO 205, 48 h drug incubation, read-out: GI50) of the same compound?
The GI50 was 342 nM.

What about the GI50 ([20]; IGROV-1, Ovarian Cancer, IGROV1, 48 h drug incubation, read-out: GI50) of the same compound?
Its GI50 is 704 nM.

And the GI50 ([21]; Colon Cancer, HCT-116, 48 h drug incubation, read-out: GI50)?
Its GI50 is 319 nM.

What about the GI50 ([22]; Breast Cancer, MDA-MB-468, 48 h drug incubation, read-out: GI50) of the same compound?
Its GI50 is 1540 nM.

What about the GI50 ([23]; Ovarian Cancer, OVCAR-8, 48 h drug incubation, read-out: GI50) of the same compound?
Its GI50 is 263 nM.

Which results are given for CCCC[Si](C)(C)COc1ccc(C(=O)N[C@@H](Cc2ccc(-c3ccccc3)cc2)C(=O)NC2CC(C)(C)NC(C)(C)C2)cc1 [GH1504, N^α-{4-[(butyldimethylsilyl)methoxy]-benzoyl}-N-(2,2,6,6-tetramethylpiperidin-4-yl)-(4-phenyl-L-phenylalaninamide)]?
GI50 ([1]; SW-620, 48 h): 316 nM; GI50 ([2]; MCF7, 48 h): 332 nM; GI50 ([3]; CAKI-1, 48 h): 1580 nM; GI50 ([4]; SF-539, 48 h): 1770 nM; GI50 ([5]; HL-60, 48 h): 1220 nM; GI50 ([6]; A498, 48 h): 1950 nM; GI50 ([7]; SK-MEL-28, 48 h): 1330 nM; GI50 ([8]; DU-145, 48 h): 368 nM; GI50 ([9]; 48 h): 1820 nM; GI50 ([10]; KM12, 48 h): 376 nM; GI50 [11]: 886 nM; GI50 ([12]; OVCAR-3, 48 h): 202 nM; GI50 ([13]; MDA-MB-435, 48 h): 292 nM; GI50 ([14]; 48 h): 207 nM; GI50 ([15]; NCI-H460, 48 h): 348 nM; GI50 ([16]; HT-29, 48 h): 315 nM; GI50 ([17]; SF-268, 48 h): 679 nM; GI50 [18]: 408 nM; GI50 ([19]; COLO 205, 48 h): 215 nM; GI50 ([20]; IGROV-1, 48 h): 1640 nM; GI50 ([21]; HCT-116, 48 h): 218 nM; GI50 ([22]; MDA-MB-468, 48 h): 198 nM; GI50 ([23]; OVCAR-8, 48 h): 216 nM
